Data reported in publication PMC10648875 (Antimicrobial Agents and Chemotherapy, 2023).
Converted amounts (≈) assume the structure as drawn. Like-named read-outs stand apart in the source and are kept apart here.

Columns and labels:
[1] = system: PAM4846 producing OXA-9; assay: MIC, engineered isogenic strain; format: cell-based, P. aeruginosa; conditions: OXA-9, class D; BLIs at fixed 4 µg/mL
[2] = system: PAM4135 producing KPC-2; assay: MIC, engineered isogenic strain; format: cell-based, P. aeruginosa; conditions: KPC-2, class A; BLIs at fixed 4 µg/mL
[3] = system: carbapenem-resistant strains of Enterobacterales with cefepime-taniborbactam MIC >8 µg/mL; assay: MIC testing of CRE with reduced cefepime-taniborbactam susceptibility (Table 6, Fig 1); format: cell-based
Protocol: Isolates were tested for antimicrobial susceptibility using the broth microdilution methodology per CLSI M07 (2018) guidelines ([40]). JMI Laboratories produced frozen-form 96-well panels with cation-adjusted Mueller-Hinton broth as the testing medium. Current CLSI quality assurance practices were followed when performing the susceptibility tests. MIC values were validated by concurrently testing the following CLSI-recommended ([27]) QC reference strains: E. coli NCTC 13353 (CTX-M-15), Klebsiella pneumoniae ATCC BAA-2814 (KPC-3), Klebsiella pneumoniae ATCC BAA-1705 (KPC-2), and K. pneumoniae ATCC 700603 (SHV-18). The inoculum density during susceptibility testing was monitored by bacterial colony counts. Where applicable, QC ranges for tested reference strains were those approved or published by the CLSI ([27]).

[4] = system: PAM4744 producing SME-2; assay: MIC, engineered isogenic strain; format: cell-based, P. aeruginosa; conditions: SME-2, class A; BLIs at fixed 4 µg/mL
[5] = system: PAM4910 producing VEB-2; assay: MIC, engineered isogenic strain; format: cell-based, P. aeruginosa; conditions: VEB-2, class A; BLIs at fixed 4 µg/mL
[6] = system: PAM4821 producing CTX-M-25; assay: MIC, engineered isogenic strain; format: cell-based, P. aeruginosa; conditions: CTX-M-25, class A; BLIs at fixed 4 µg/mL
[7] = system: PAM4842 producing PER-2; assay: MIC, engineered isogenic strain; format: cell-based, P. aeruginosa; conditions: PER-2, class A; BLIs at fixed 4 µg/mL
[8] = system: PAM4869 producing PDC-1; assay: MIC, engineered isogenic strain; format: cell-based, P. aeruginosa; conditions: PDC-1, class C; BLIs at fixed 4 µg/mL
[9] = system: PAM4745 producing P99; assay: MIC, engineered isogenic strain; format: cell-based, P. aeruginosa; conditions: P99, class C; BLIs at fixed 4 µg/mL
[10] = system: PAM4217 producing OXA-48; assay: MIC, engineered isogenic strain; format: cell-based, P. aeruginosa; conditions: OXA-48, class D; BLIs at fixed 4 µg/mL
[11] = system: PAM4875 producing OXA-23; assay: MIC, engineered isogenic strain; format: cell-based, P. aeruginosa; conditions: OXA-23, class D; BLIs at fixed 4 µg/mL
[12] = system: ESBL-producing and carbapenem-resistant Enterobacterales (All, N = 1028); assay: organism not typed; format: cell-based
[13] = system: PAM4878 producing TEM-10; assay: MIC, engineered isogenic strain; format: cell-based, P. aeruginosa; conditions: TEM-10, class A; BLIs at fixed 4 µg/mL

CO/N=C(\C(=O)N[C@@H]1C(=O)N2C(C(=O)[O-])=C(C[N+]3(C)CCCC3)CS[C@H]12)c1csc(N)n1 [FEP, cefepime]
MIC [1]: 2 mg/L (≈ 4.16 µM) | MIC [2]: > 64 mg/L | MIC50 [3]: 64 mg/L | MIC90 [3]: > 64 mg/L | MIC50 ([3]; All MBL (N = 129)): 64 mg/L | MIC90 ([3]; All MBL (N = 129)): > 64 mg/L | MIC50 ([3]; IMP (N = 20)): 32 mg/L | MIC90 ([3]; IMP (N = 20)): > 64 mg/L | MIC50 ([3]; KPC and OXA-48 (N = 12)): 64 mg/L | MIC90 ([3]; KPC and OXA-48 (N = 12)): > 64 mg/L | MIC50 ([3]; MBL negative (N = 34)): 64 mg/L | MIC90 ([3]; MBL negative (N = 34)): > 64 mg/L | MIC50 ([3]; NDN (N = 101)): 64 mg/L | MIC90 ([3]; NDN (N = 101)): > 64 mg/L | MIC50 ([3]; Non-CP CRE (N = 22)): 64 mg/L | MIC90 ([3]; Non-CP CRE (N = 22)): > 64 mg/L | MIC50 ([3]; VIM (N = 8)): > 64 mg/L | MIC [4]: 0.5 mg/L (≈ 1.04 µM) | MIC [5]: > 64 mg/L | MIC [6]: > 64 mg/L | MIC [7]: 64 mg/L (≈ 133 µM) | MIC [8]: 4 mg/L (≈ 8.32 µM) | MIC [9]: 8 mg/L (≈ 16.6 µM) | MIC [10]: 0.5 mg/L (≈ 1.04 µM) | MIC [11]: 2 mg/L (≈ 4.16 µM) | MIC50 ([12]; read-out: MIC50): 64 mg/L (≈ 133 µM) | MIC90 ([12]; read-out: MIC90): > 64 mg/L | MIC [13]: 16 mg/L (≈ 33.3 µM)
